Counter-ions that a name gives are not always drawn.

In general, ED50 refers to the midpoint of the dose-response relation. For orientation: LD50 means the dose expected to kill half of the subjects tested.

Data set [1] deals with electroshock induced tonic extensor. The data set is described as follows: Antagonism of electroshock induced tonic extensor (anticonvulsant activity). The note with it: Mus musculus, ip; mice; dose which prevents 50% of response. The data set is classed as in vivo.
The subject of data set [2] is spontaneous motor activity. The data set is described as follows: Spontaneous motor activity by ANIMEX apparatus (CNS depressant activity). The data set is classed as in vivo. Conditions: Mus musculus, ip, mice, i.p., read-out: Spontaneous Motor Activity Depression ED50.
For data set [3], the system named is reserpine induced hypothermia. Description: Antagonism of reserpine induced hypothermia in mice (antireserpine / antidepressant activity). The format is in vivo. Conditions: i.p.; for Antireserpine activity, Relative Potency: reserpine 5 mg/kg i.p., Amitriptyline = 1.
Experimental: (§1) The compounds were administered intraperitoneally and the activities of the compounds were compared with those of Amitriptyline.
A short description of another data set: in vivo. The note with it: mouse, ip.
A further data set deals with tremorine induced tremor. Description: Tremorine induced tremor in mice (central anticholinergic effect). The data set is classed as in vivo. Conditions: for ED50: Mus musculus, ip, tremorine induced tremor, read-out: Antitremorine Effect ED50.
For a further data set, the system named is neurological deficit. The data set is described as follows: Traction test (neurological deficit; muscle relaxant action; CNS depressant activity). The format is in vivo. The note with it: mice; for ED50: Mus musculus, ip, traction test.
A further data set has as its system mice. Conditions: i.p., compared with Amitriptyline.

Experimental for tremorine induced tremor: as §1

Turning to `NCCCCOc1ccccc1-c1ccccc1` [2-(4-aminobutoxy)diphenyl hydrochloride], the ED50 turned out to be 14 mg/kg in data set [1], 40 mg/kg in data set [2], 60 mg/kg in the data set on tremorine induced tremor and 50 mg/kg with neurological deficit. Also, the “Antireserpine activity, Relative Potency” value in data set [3] is listed as 0.59. This compound also showed an LD50 in the data set “in vivo” of 137 mg/kg.

For `CN(C)CCCCOc1ccccc1-c1ccccc1` [2-(4-dimethylaminobutoxy)diphenyl hydrochloride], in data set [3], the “Antireserpine activity, Relative Potency” value is 0.45. Besides, the LD50 in the data set “in vivo” turned out to be 100 mg/kg.

As for `CNCCCCOc1ccccc1-c1ccccc1` [2-(4-methylaminobutoxy)diphenyl hydrochloride], the “toxicity (in words)” value in the data set on mice was “low toxicity”. Further, the ED50 in data set [1] worked out at 14 mg/kg; in data set [2], 30 mg/kg; with tremorine induced tremor, 20 mg/kg; in the data set with neurological deficit, 40 mg/kg. For the same compound, the “antireserpine activity (in words)” value in data set [3] (compared with Amitriptyline) was “comparable to that of Amitriptyline”. Further, the “Antireserpine activity, Relative Potency” value in data set [3] stood at 0.99. This compound also came in with an LD50 in “in vivo” of 78 mg/kg. The “anticholinergic action (in words)” value with tremorine induced tremor (i.p., compared with Amitriptyline) is on record as “weak”. The “CNS depressant action (in words)” value in the data set with neurological deficit (i.p., traction test and spontaneous motor activity) is “weak”.

(Values after patent US4071559A, “Pharmaceutically active 2-omega-aminoalkoxydiphenyls” (Mitsubishi Chemical Industries Limited, priority 1975, dated 1978).)
